From ChEMBL document CHEMBL3044788, “α-(Substituted-phenoxyacetoxy)-α-heterocyclylmethylphosphonates: synthesis, herbicidal activity, inhibition on pyruvate dehydrogenase complex (PDHc), and application as postemergent herbicide against broadleaf weeds” (J Agric Food Chem, 2013)
pIC50: −log10 of the molar value.

Legend:
Chenopodium album [1] = assay: Herbicidal activity against Chenopodium album assessed as relative growth inhibition at 900 g/ha in greenhouse by post-emergence herbicidal activity assay; type: functional; conditions: read-out: GI
Amaranthus blitum = assay: Herbicidal activity against Amaranthus blitum assessed as relative growth inhibition at 600 g/ha in greenhouse by post-emergence herbicidal activity assay; type: functional; conditions: read-out: GI
Polygonum aviculare [2] = assay: Herbicidal activity against Polygonum aviculare assessed as relative growth inhibition at 50 g/ha in greenhouse by post-emergence herbicidal activity assay; type: functional; conditions: read-out: GI
[3] = molecular target: T1, Pyruvate dehydrogenase complex (Pisum sativum, UniProt P52902+P52904); assay: Inhibition of Pisum sativum (pea) PDHc by spectrophotometric assay; type: protein-complex assay, Lathyrus oleraceus
T1 sequence (P52902 whole entry): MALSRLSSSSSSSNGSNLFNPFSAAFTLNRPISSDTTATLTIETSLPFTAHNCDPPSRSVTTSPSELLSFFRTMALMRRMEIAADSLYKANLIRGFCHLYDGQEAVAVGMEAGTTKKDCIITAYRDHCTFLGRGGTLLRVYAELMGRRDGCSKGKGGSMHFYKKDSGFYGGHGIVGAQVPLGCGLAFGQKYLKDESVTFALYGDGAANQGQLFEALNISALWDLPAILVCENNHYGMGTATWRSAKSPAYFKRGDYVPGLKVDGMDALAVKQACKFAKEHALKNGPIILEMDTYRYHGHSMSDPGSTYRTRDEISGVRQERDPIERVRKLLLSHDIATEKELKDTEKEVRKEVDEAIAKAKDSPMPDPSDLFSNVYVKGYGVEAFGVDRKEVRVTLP
T1 sequence (P52904 whole entry): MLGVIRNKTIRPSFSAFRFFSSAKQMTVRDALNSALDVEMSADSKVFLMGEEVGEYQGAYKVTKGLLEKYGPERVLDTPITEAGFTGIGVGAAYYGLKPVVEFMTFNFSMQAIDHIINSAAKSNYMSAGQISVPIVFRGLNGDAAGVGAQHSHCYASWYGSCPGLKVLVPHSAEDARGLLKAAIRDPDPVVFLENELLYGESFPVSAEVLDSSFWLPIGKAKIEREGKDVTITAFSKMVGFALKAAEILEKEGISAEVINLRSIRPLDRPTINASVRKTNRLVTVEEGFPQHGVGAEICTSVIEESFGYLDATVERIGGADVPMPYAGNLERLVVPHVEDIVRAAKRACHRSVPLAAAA

Amaranthus spinosus [4] = assay: Herbicidal activity against Amaranthus spinosus assessed as relative growth inhibition at 50 g/ha in greenhouse by postemergence herbicidal activity assay; type: functional; conditions: post-emergence, read-out: GI
Oryza sativa [5] = assay: Herbicidal activity against Oryza sativa (rice) assessed as relative growth inhibition at 450 g/ha in greenhouse by postemergence herbicidal activity assay; type: organism-based; conditions: in vivo, other
Amaranthus retroflexus = assay: Herbicidal activity against 2 to 3 leaf stage Amaranthus retroflexus assessed as inhibition of plant growth at 150 g/ha in greenhouse by postemergence herbicidal activity assay; type: functional; conditions: post-emergence, read-out: GI
Polygonum aviculare [6] = assay: Herbicidal activity against Polygonum aviculare assessed as relative growth inhibition at 1200 g/ha in greenhouse by post-emergence herbicidal activity assay; type: functional; conditions: read-out: GI
Chenopodium album [7] = assay: Herbicidal activity against Chenopodium album assessed as relative growth inhibition at 1200 g/ha in greenhouse by post-emergence herbicidal activity assay; type: functional; conditions: read-out: GI
Echinochloa crus-galli = assay: Herbicidal activity against 2 to 3 leaf stage Echinochloa crus-galli (barnyard grass) assessed as inhibition of plant growth at 450 g/ha in greenhouse by postemergence herbicidal activity assay; type: functional; conditions: Echinochloa crus-galli, post-emergence; read-out: GI
Chenopodium album [8] = assay: Herbicidal activity against Chenopodium album assessed as relative growth inhibition at 50 g/ha in greenhouse by post-emergence herbicidal activity assay; type: functional; conditions: read-out: GI
Polygonum aviculare [9] = assay: Herbicidal activity against Polygonum aviculare assessed as relative growth inhibition at 100 g/ha in greenhouse by post-emergence herbicidal activity assay; type: functional; conditions: read-out: GI
Amaranthus spinosus [10] = assay: Herbicidal activity against Amaranthus spinosus assessed as relative growth inhibition at 450 g/ha in greenhouse by postemergence herbicidal activity assay; type: functional; conditions: post-emergence, read-out: GI
Oryza sativa [11] = assay: Herbicidal activity against Oryza sativa (rice) assessed as relative growth inhibition at 600 g/ha in greenhouse by postemergence herbicidal activity assay; type: organism-based; conditions: in vivo, other
Polygonum aviculare [12] = assay: Herbicidal activity against Polygonum aviculare assessed as relative growth inhibition at 600 g/ha in greenhouse by post-emergence herbicidal activity assay; type: functional; conditions: read-out: GI
Chenopodium album [13] = assay: Herbicidal activity against Chenopodium album assessed as relative growth inhibition at 100 g/ha in greenhouse by post-emergence herbicidal activity assay; type: functional; conditions: read-out: GI
Beta vulgaris = assay: Herbicidal activity against Beta vulgaris assessed as relative growth inhibition at 300 g/ha in greenhouse by post-emergence herbicidal activity assay; type: functional; conditions: read-out: GI
Chenopodium album [14] = assay: Herbicidal activity against Chenopodium album assessed as relative growth inhibition at 300 g/ha in greenhouse by post-emergence herbicidal activity assay; type: functional; conditions: read-out: GI
Polygonum aviculare [15] = assay: Herbicidal activity against Polygonum aviculare assessed as relative growth inhibition at 900 g/ha in greenhouse by post-emergence herbicidal activity assay; type: functional; conditions: read-out: GI
Zea mays = assay: Herbicidal activity against Zea mays (maize) assessed as relative growth inhibition at 200 g/ha in greenhouse by postemergence herbicidal activity assay; type: organism-based; conditions: in vivo, other
[16] = Inhibition of Oryza sativa (rice) PDHc by spectrophotometric assay
Amaranthus spinosus [17] = assay: Herbicidal activity against Amaranthus spinosus assessed as relative growth inhibition at 900 g/ha in greenhouse by postemergence herbicidal activity assay; type: functional; conditions: post-emergence, read-out: GI
Polygonum aviculare [18] = assay: Herbicidal activity against Polygonum aviculare assessed as relative growth inhibition at 200 g/ha in greenhouse by post-emergence herbicidal activity assay; type: functional; conditions: read-out: GI

## COP(=O)(OC)C(OC(=O)COc1ccc(Cl)cc1Cl)c1ccco1 (stereo not drawn)
Chenopodium album [1]
  inhibition of growth at 900 g/ha: 100%
Amaranthus blitum
  inhibition of growth at 600 g/ha: 100%
Polygonum aviculare [2]
  inhibition of growth at 50 g/ha: 70%
[3]
  pIC50: 4.55
Amaranthus spinosus [4]
  inhibition of growth at 50 g/ha: 60%
Oryza sativa [5]
  growth inhibition (GI): 0%
Amaranthus retroflexus
  inhibition of growth at 150 g/ha: 95%
Polygonum aviculare [6]
  inhibition of growth at 1200 g/ha: 100%
Chenopodium album [7]
  inhibition of growth at 1200 g/ha: 100%
Echinochloa crus-galli
  inhibition of growth at 450 g/ha: 25%
Chenopodium album [8]
  inhibition of growth at 50 g/ha: 80%
Polygonum aviculare [9]
  inhibition of growth at 100 g/ha: 83%
Amaranthus spinosus [10]
  inhibition of growth at 450 g/ha: 100%
Oryza sativa [11]
  growth inhibition (GI): 0%
Polygonum aviculare [12]
  inhibition of growth at 600 g/ha: 100%
Chenopodium album [13]
  inhibition of growth at 100 g/ha: 90%
Beta vulgaris
  inhibition of growth at 300 g/ha: 98%
Chenopodium album [14]
  inhibition of growth at 300 g/ha: 100%
Polygonum aviculare [15]
  inhibition of growth at 900 g/ha: 100%
Zea mays
  growth inhibition (GI): 0%
[16]
  pIC50: 3.15
Amaranthus spinosus [17]
  inhibition of growth at 900 g/ha: 100%
Polygonum aviculare [18]
  inhibition of growth at 200 g/ha: 85%
